Data from patent publication US20260250320A1, “LIPIDATED PEPTIDE INHIBITORS OF INTERLEUKIN-23 RECEPTOR” (Janssen Pharmaceutica NV, priority 2023, published 2026).
*1 amine or outer side, *2 acyl side, *3 side chain or, on linkers, in order; H or OH if unused. Where a SMILES comes first, the peptide text is derived from it. Bridges are numbered along the chain shown (N, C = ends). Side-chain parts run from the residue outwards. [ ]: non-standard residue; d: D form. The star is where a group is joined. X32 = O=C(O)CCCCCCCCCCCCCCCCC(=O)N[C@@H](CCC(=O)NCCOCCOCCOCCOCCOCCOCCOCCOCCOCCOCCOCCCOCCC(=O)*)C(=O)O; X39 = O=C(O)CCCCCCCCCCCCCCCCC(=O)NC(CCC(=O)NCCCCCOCC(=O)*)C(=O)O; X5 = O=C(O)CCCCCCCCCCCCCCCCC(=O)N[C@@H](CCC(=O)NC(=O)*)C(=O)O; Me3N+(CH2)2O(CH2)2O(CH2)2CO = C[N+](C)(C)CCOCCOCCC(=O)*; PEG12 = NCCOCCOCCOCCOCCOCCOCCOCCOCCOCCOCCOCCOCCC(=O)O; CH2CH2OCH2CH2OCH2CH2NMe3+ = C[N+](C)(C)CCOCCOCC*; Trp(7-Me) = Cc1cccc2c(C[C@H](N)C(=O)O)c[nH]c12; C18 diacid = O=C(O)CCCCCCCCCCCCCCCCC(=O)*; γGlu = O=C(O)[C@H](CCC(=O)[*:2])N[*:1]; 2Nal = N[C@@H](Cc1ccc2ccccc2c1)C(=O)O; AEF = NCCOc1ccc(C[C@H](N)C(=O)O)cc1; X2 = C[N+](C)(C)C[C@@H](CC(=O)O)N*; 3Pal = N[C@@H](Cc1cccnc1)C(=O)O; Lys(Me) = CNCCCC[C@H](N)C(=O)O; NMeK = CN[C@@H](CCCCN)C(=O)O; Pen = CC(C)(S)[C@H](N)C(=O)O; Suc = O=C(CCC(=O)[*:2])[*:1]; Thp = NC1(C(=O)O)CCOCC1; AEEA = NCCOCCOCC(=O)O; Sar = CNCC(=O)O

Key:
[1] = tested on: IL-23-stimulated phosphorylated STAT3 in peripheral blood mononuclear cells (PBMCs); assay: PBMC pSTAT3 Assay; assay type: cell-based; details: PBMCs from healthy donors; 30 min preincubation with peptide; IL-23 5 ng/mL for 30 min; phospho-STAT3 by MSD
Outline: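 Healthy-donor PBMCs expanded 4 days on anti-CD3 with 100 ng/mL IL-1β, starved ~4 h in RPMI-0.1% BSA, preincubated 30 min with peptide, then stimulated 30 min at 37 °C with 5 ng/mL IL-23. Lysate pSTAT3 measured by MSD phospho-STAT panel; IC50 derived.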

IL-23R = molecular target: T1, IL-23R (Homo sapiens, UniProt Q5VWK5); assay: IL23R Reporter Assay; assay type: cell-based; details: HEK293 cells containing IL-23R, IL-12Rβ1 and STAT-inducible firefly luciferase reporter; 10 ng/mL IL-23 (EC90); 5 h
T1 construct: HEK293 cells containing IL-23R, IL-12Rβ1 and a firefly luciferase reporter gene driven by a STAT-inducible promoter (Promega); host or cells: HEK293
T1 sequence (Q5VWK5 24-629): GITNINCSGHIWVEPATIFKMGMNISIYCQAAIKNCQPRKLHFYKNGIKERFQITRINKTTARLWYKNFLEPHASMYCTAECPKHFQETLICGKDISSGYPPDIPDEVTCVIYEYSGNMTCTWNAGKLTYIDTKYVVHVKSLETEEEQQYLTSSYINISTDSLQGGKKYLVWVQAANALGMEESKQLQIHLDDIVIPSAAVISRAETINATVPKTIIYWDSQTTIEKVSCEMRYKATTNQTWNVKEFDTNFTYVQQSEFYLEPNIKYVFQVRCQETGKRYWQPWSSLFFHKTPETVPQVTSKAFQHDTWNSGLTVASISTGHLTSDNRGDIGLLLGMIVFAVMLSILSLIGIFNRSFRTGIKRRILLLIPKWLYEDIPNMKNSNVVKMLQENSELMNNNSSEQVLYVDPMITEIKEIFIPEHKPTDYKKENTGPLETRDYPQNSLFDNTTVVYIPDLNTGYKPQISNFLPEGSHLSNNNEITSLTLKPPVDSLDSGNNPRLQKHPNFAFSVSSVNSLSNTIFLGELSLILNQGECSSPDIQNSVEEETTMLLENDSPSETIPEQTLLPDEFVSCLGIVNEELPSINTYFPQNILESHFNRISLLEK
Outline: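 HEK293 cells carrying IL-23R, IL-12Rβ1 and a STAT-driven firefly luciferase reporter (4000 cells/well) received compound, then 10 ng/mL IL-23 solution (EC90), and were incubated for 5 h at 37° C. BioGlo luminescence was normalised to IL-23 alone (0%) and 30 μM control inhibitor (100%). IC50 came from a 4-parameter Hill fit.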

Row | SMILES | IC50 [1] [nM] | IC50 (IL-23R) [nM]
1 | CC(=O)NCCCC[C@@H]1NC(=O)[C@H](Cc2c[nH]c3c(C)cccc23)NC(=O)[C@H]([C@@H](C)O)NC(=O)[C@H](CC(N)=O)NC(=O)[C@@H](NC(=O)[C@@H](CCCNC(=N)N)NC(C)=O)C(C)(C)SSC(C)(C)[C@@H](C(=O)N[C@@H](Cc2ccc(OCCN)cc2)C(=O)N[C@@H](Cc2ccc3ccccc3c2)C(=O)NC2(C(=O)N[C@@H](CCC(=O)O)C(=O)N[C@@H](CC(N)=O)C(=O)N[C@@H](Cc3cccnc3)C(=O)N(C)CC(=O)N[C@@H](CCCCNC(=O)CCOCCCOCCOCCOCCOCCOCCOCCOCCOCCOCCOCCOCCNC(=O)CC[C@H](NC(=O)CCCCCCCCCCCCCCCCC(=O)O)C(=O)O)C(N)=O)CCOCC2)NC1=O [compound 133, MeCO-r-Pen(3)-N-T-7MeW-K(Ac)-Pen(3)-AEF-2Nal-THP-E-N-3Pya-Sar-K(PEG12gEC18OH)-CONH2] (Ac-[dR][Pen]NT[Trp(7-Me)]K(Ac)[Pen][AEF][2Nal][Thp]EN[3Pal][Sar]K(X32)-NH2; disulfide 2-7) | < 0.5 | < 50
2 | CC(=O)N(C)CCCC[C@@H]1NC(=O)[C@H](Cc2c[nH]c3c(C)cccc23)NC(=O)[C@H]([C@@H](C)O)NC(=O)[C@H](CC(=O)N(C)C)NC(=O)[C@@H](NC(=O)CCOCCOCC[N+](C)(C)C)C(C)(C)SSC(C)(C)[C@@H](C(=O)N[C@@H](Cc2ccc(OCCOCCOCC[N+](C)(C)C)cc2)C(=O)N[C@@H](Cc2ccc3ccccc3c2)C(=O)NC2(C(=O)N[C@@H](CCCCN(C)C(C)=O)C(=O)N[C@@H](CC(N)=O)C(=O)N[C@@H](Cc3cccnc3)C(=O)N(C)[C@@H](CCCCNC(=O)CCOCCOCCOCCOCCOCCOCCOCCOCCOCCOCCOCCOCCNC(=O)CC[C@H](NC(=O)CCCCCCCCCCCCCCCCC(=O)O)C(=O)O)C(N)=O)CCOCC2)NC1=O [compound 107, cPEG3aCO-Pen(3)-N(N(Me)2)-T-7MeW-K(NMeAc)-Pen(3)-APEG3F-2Nal-THP-K(NMeAc)-N-3Pya-NMeK(PEG12gEC18OH)-CONH2] ({Me3N+(CH2)2O(CH2)2O(CH2)2CO}-[Pen]D(NMe2)T[Trp(7-Me)][Lys(Me)](Ac)[Pen]Y(CH2CH2OCH2CH2OCH2CH2NMe3+)[2Nal][Thp][Lys(Me)](Ac)N[3Pal][NMeK]([PEG12-γGlu-C18 diacid])-NH2; disulfide 1-6) | < 0.5 | < 50
3 | CC(=O)NCCCC[C@@H]1NC(=O)[C@H](Cc2c[nH]c3c(C)cccc23)NC(=O)[C@H]([C@@H](C)O)NC(=O)[C@H](CC(N)=O)NC(=O)[C@@H](NC(=O)[C@@H](CCCNC(=N)N)NC(=O)CCC(=O)N[C@H](CC(=O)O)C[N+](C)(C)C)C(C)(C)SSC(C)(C)[C@@H](C(=O)N[C@@H](Cc2ccc(OCCNC(=O)COCCOCCNC(=O)COCCOCCNC(=O)NC(=O)CC[C@H](NC(=O)CCCCCCCCCCCCCCCCC(=O)O)C(=O)O)cc2)C(=O)N[C@@H](Cc2ccc3ccccc3c2)C(=O)NC2(C(=O)N[C@@H](CCC(=O)O)C(=O)N[C@@H](CC(N)=O)C(=O)N[C@@H](Cc3cccnc3)C(=O)N(C)CC(N)=O)CCOCC2)NC1=O [compound 11, succiniccarn-r-Pen(3)-N-T-7MeW-K(Ac)-Pen(3)-AEF(PEG2PEG2gEC18OH)-2Nal-THP-E-N-3Pya-Sar-CONH2] ({X2-Suc}-[dR][Pen]NT[Trp(7-Me)]K(Ac)[Pen][AEF]([AEEA-AEEA-X5])[2Nal][Thp]EN[3Pal][Sar]-NH2; disulfide 2-7) | 0.5 to 5 | 50 to 500
4 | CC(=O)NCCCC[C@@H]1NC(=O)[C@H](Cc2c[nH]c3c(C)cccc23)NC(=O)[C@H]([C@@H](C)O)NC(=O)[C@H](CC(N)=O)NC(=O)[C@@H](NC(=O)[C@@H](CCCNC(=N)N)NC(C)=O)C(C)(C)SSC(C)(C)[C@@H](C(=O)N[C@@H](Cc2ccc(OCCN)cc2)C(=O)N[C@@H](Cc2ccc3ccccc3c2)C(=O)NC2(C(=O)N[C@@H](CCCCNC(=O)CCC(=O)N[C@H](CC(=O)O)C[N+](C)(C)C)C(=O)N[C@@H](CC(N)=O)C(=O)N[C@@H](Cc3cccnc3)C(=O)N(C)[C@@H](CCCCNC(=O)COCCOCCNC(=O)COCCCCCNC(=O)CCC(NC(=O)CCCCCCCCCCCCCCCCC(=O)O)C(=O)O)C(N)=O)CCOCC2)NC1=O (some centres unmarked) [compound 41, MeCO-r-Pen(3)-N-T-7MeW-K(Ac)-Pen(3)-AEF-2Nal-THP-K(d)-N-3Pya-NMeK(PEG2PEG2gEC18OH)-CONH2] (Ac-[dR][Pen]NT[Trp(7-Me)]K(Ac)[Pen][AEF][2Nal][Thp]K([Suc-X2])N[3Pal][NMeK]([AEEA-X39])-NH2; disulfide 2-7) | < 0.5 | 50 to 500
